Results reported in paper PMC8194028, “Engineering and characterization of human β-defensin-3 and its analogues and microcin J25 peptides against Mannheimia haemolytica and bovine neutrophils” (Veterinary Research, 2021).
In brackets after ≈: the same amount, converted by molar mass. Read-outs that look alike come from different tables or passages of the source. Positions of bridges follow the written chain, without caps; N, C: chain ends. Residues, ends and D or L forms follow the SMILES beside them. No end group written: not given here.

Assays:
M. haemolytica-A1 = type: cell-based, Mannheimia haemolytica; details: for No. of CFU: one of three experiments
Method: Wild-type HBD3, its analogues, and MccJ25 were tested against M. haemolytica-A1 using optical density method and colony count assay. Briefly, an aliquot (5 µL) from bacteria suspension stored at −80 °C was put in 5 mL BHI broth at 37 °C for 18 h. An aliquot (10 µL) from this overnight culture was added to fresh BHI broth and incubated at 37 °C for a further 5 h to obtain mid-log phase bacteria. The culture was then centrifuged for 10 min at 800 g at 4 °C. The supernatant was discarded and the bacterial pellet was resuspended in cold, sterile sodium phosphate buffer (SPB) and washed again at 800g for 10 min at 4 °C. The pellet was resuspended in 5 mL SPB. To calculate the number of CFU/mL in the 5 h culture, six successive tenfold dilutions were made. From the last dilution 100 µL was plated in duplicate on petri dishes containing BHI agar and incubated for 24 h. After 24 h the colonies were counted in the two petri dishes and then averaged. Total number of colonies was the average number of colonies multiplied by the dilution factor.
All assays were carried out in sterile 96-well polypropylene flat-bottomed plates using a broth microdilution method. Two-fold serial dilutions of peptide were made in SPB, and 50 µL of each concentration of peptide was added to the wells of the assay plate. […] Positive control wells contained 50 µL of the bacteria with 50 µL of 64 µg/mL ampicillin and negative control wells contained 50 µL of SPB and 50 µL bacterial suspension. Sterility control well contained 100 µL BHI broth to test and ensure that broth was not contaminated.
The plates were sealed with aluminum foil and were incubated at 37 °C for 2 h then 50 µL of the contents of the well were pipetted on BHI agar plates and incubated for 24 h. The bactericidal activity was expressed as the MBC which is the concentration at which 99.9% of the colonies are killed and the Lethal dose 50 (LD50) at which 50% or more bacteria are killed. All experiments were run in triplicates.
Peptides HBD3, its analogues and Mccj25 were assessed for Minimum bactericidal concentration (MBC). […] All the peptides have shown intermediate to potent killing activity towards M. haemolytica (Figures 2, 3). […] However, some published studies have taken final inoculum in the range of 10^4–10^5 cfu/mL [28].

[1] = cited from earlier work
Text: In this context, antimicrobial peptides (AMPs) have received significant attention as alternatives to antibiotics. […] Recent work by the […] laboratory has shown that treatment with naturally expressed Tracheal Antimicrobial Peptide, a defensin, neither killed M. haemolytica nor prevented the development of lung disease. Coupled with the fact that M. haemolytica, in normal condition, is prevented from e ...

bovine neutrophils [2] = assay: Chemotaxis assay, 48-well Boyden chamber; type: cell-based, cattle; details: peptide 50.0 μg/mL in lower well; 20 min at 37 °C; three independent experiments; ANOVA with Dunnett, P < 0.05
Method: (§1) Neutrophils were isolated from cattle using established methods and approved by the University of Saskatchewan’s Committee on Animal Care. For each individual animal, blood was pooled into 50 mL tubes and diluted with an equal volume of PBS then 12.5 mL of the diluted blood was layered over 10 mL of Ficoll Paque PLUS (Sigma-Aldrich, St. Louis, USA) while taking care to preserve the interface between the two liquids. Following centrifugation at 400 g for 30 min at 20 °C with the brake turned off, the lymphocyte layer was discarded along with Ficoll and plasma. The pellet was washed in 20 mL PBS with centrifugation at 500 g with low brake for 10 min. The supernatant was discarded and the pellet was suspended in equal volume of sterile water and gently mixed for 20 s followed by addition of equal volume of 1.8% NaCl to restore tonicity. The mixture was centrifuged at 500 g for 10 min and followed by another washing and centrifugation at 4 °C. The resulting neutrophil pellet was resuspended in PBS. Bovine neutrophils, collected in the above manner had more than 92% purity, and their viability was greater than 95% based on Trypan blue exclusion assay. Therefore, we use the term neutrophils in the manuscript.
We used fMLP ([…]) as the chemoattractant. […] The cells within the filter pores were then counted in five random fields under light microscope at 40×. […]

bovine neutrophils [3] = assay: Migration inhibition assay (neutrophil migration towards fMLP); type: cell-based, cattle; details: neutrophils with 50.0 μg/mL peptide in upper well; fMLP 114 nM in lower well; 20 min at 37 °C; three independent experiments
Method: as §1
Since peptides can be immunomodulatory, migration inhibition was carried out to determine if the peptides inhibit neutrophil migration. […]

[4] = peptide 0.8 μg/mL, well row A (duplicate 1), final inoculum 5 × 10^5 cfu/mL
[5] = peptide 0.8 μg/mL, well row B (duplicate 2), final inoculum 5 × 10^5 cfu/mL
[6] = peptide 1.6 μg/mL, well row A (duplicate 1), final inoculum 5 × 10^5 cfu/mL
[7] = peptide 1.6 μg/mL, well row B (duplicate 2), final inoculum 5 × 10^5 cfu/mL
[8] = peptide 3.1 μg/mL, well row A (duplicate 1), final inoculum 5 × 10^5 cfu/mL
[9] = peptide 3.1 μg/mL, well row B (duplicate 2), final inoculum 5 × 10^5 cfu/mL
[10] = peptide 12.5 μg/mL, well row A (duplicate 1), final inoculum 5 × 10^5 cfu/mL
[11] = peptide 12.5 μg/mL, well row B (duplicate 2), final inoculum 5 × 10^5 cfu/mL
[12] = peptide 25.0 μg/mL, well row A (duplicate 1), final inoculum 5 × 10^5 cfu/mL
[13] = peptide 25.0 μg/mL, well row B (duplicate 2), final inoculum 5 × 10^5 cfu/mL
[14] = peptide 50.0 μg/mL, well row A (duplicate 1), final inoculum 5 × 10^5 cfu/mL
[15] = peptide 50.0 μg/mL, well row B (duplicate 2), final inoculum 5 × 10^5 cfu/mL
[16] = peptide 100.0 μg/mL, well row A (duplicate 1), final inoculum 5 × 10^5 cfu/mL, 2 h 37 °C, 50 μL plated, 24 h
[17] = peptide 100.0 μg/mL, well row B (duplicate 2), final inoculum 5 × 10^5 cfu/mL

Compound	No. of CFU (M. haemolytica-A1; [4])	No. of CFU (M. haemolytica-A1; [5])	No. of CFU (M. haemolytica-A1; [6])	No. of CFU (M. haemolytica-A1; [7])	No. of CFU (M. haemolytica-A1; [8])	No. of CFU (M. haemolytica-A1; [9])	No. of CFU (M. haemolytica-A1; [10])	No. of CFU (M. haemolytica-A1; [11])	No. of CFU (M. haemolytica-A1; [12])	No. of CFU (M. haemolytica-A1; [13])	No. of CFU (M. haemolytica-A1; [14])	No. of CFU (M. haemolytica-A1; [15])	No. of CFU (M. haemolytica-A1; [16])	No. of CFU (M. haemolytica-A1; [17])	MBC (M. haemolytica-A1; 2 h)	also measured
CC[C@H](C)[C@H](NC(=O)CNC(=O)[C@@H](NC(=O)[C@H](Cc1ccccc1)NC(=O)[C@H](Cc1ccc(O)cc1)NC(=O)[C@@H]1CCC(=O)NCC(=O)NCC(=O)N[C@@H](C)C(=O)NCC(=O)N[C@@H](Cc2c[nH]cn2)C(=O)N[C@@H](C(C)C)C(=O)N2CCC[C@H]2C(=O)N1)C(C)C)C(=O)NCC(=O)N[C@H](C(=O)N1CCC[C@H]1C(=O)N[C@H](C(=O)N[C@@H](CO)C(=O)N[C@@H](Cc1ccccc1)C(=O)N[C@@H](Cc1ccc(O)cc1)C(=O)NCC(=O)O)[C@@H](C)CC)[C@@H](C)O [MccJ25, Microcin J25] (GGAGHVPEYFVGIGTPISFYG-OH; lactam N-8 (inferred); C-terminus assumed)	>400 CFU	>400 CFU	>400 CFU	>400 CFU	>400 CFU	>400 CFU	211 CFU	253 CFU	314 CFU	310 CFU	328 CFU	230 CFU	211 CFU	275 CFU		MBC (M. haemolytica-A1; concentration at which 99.9% of the CFU in the final inoculum are killed, 2 h at 37 °C in SPB/BHI, then plated on BHI agar 24 h, final inoculum 1 × 10^5 to 1 × 10^6 cfu/mL, triplicates): 100 µg/mL (≈ 47.5 µM); LD50 (M. haemolytica-A1; lethal dose for ≥ 50% of bacteria, 2 h at 37 °C, then plated 24 h, final inoculum 1 × 10^5 to 1 × 10^6 cfu/mL, triplicates): 6.3 µg/mL; No. of CFU (M. haemolytica-A1; peptide 6.3 μg/mL, well row A (duplicate 1), final inoculum 5 × 10^5 cfu/mL): 289 CFU; No. of CFU (M. haemolytica-A1; peptide 6.3 μg/mL, well row B (duplicate 2), final inoculum 5 × 10^5 cfu/mL): 261 CFU
CC[C@H](C)[C@H](NC(=O)CNC(=O)[C@@H](NC(=O)[C@H](Cc1ccccc1)NC(=O)[C@H](Cc1ccc(O)cc1)NC(=O)[C@@H]1CCC(=O)NCC(=O)NCC(=O)N[C@@H](C)C(=O)NCC(=O)N[C@@H](Cc2cnc[nH]2)C(=O)N[C@@H](C(C)C)C(=O)N2CCC[C@H]2C(=O)N1)C(C)C)C(=O)NCC(=O)N[C@H](C(=O)N1CCC[C@H]1C(=O)N[C@H](C(=O)N[C@@H](CO)C(=O)N[C@@H](Cc1ccccc1)C(=O)N[C@@H](Cc1ccc(O)cc1)C(=O)NCC(=O)O)[C@@H](C)CC)[C@@H](C)O [MccJ25, Microcin J25] (GGAGHVPEYFVGIGTPISFYG-OH; lactam N-8)																Stability in the presence of many proteolytic enzymes [1]: stable
KEEQIGKVSTRGRKVVRRKK-OH [HBD3 20AA analogue]	>400 CFU	>400 CFU	>400 CFU	>400 CFU	376 CFU	>400 CFU	240 CFU	170 CFU	128 CFU	151 CFU	15 CFU	4 CFU	4 CFU	1 CFU	50.0 µg/mL	LD50 (M. haemolytica-A1; 2 h): 3.1 µg/mL; Sensitivity of M. haemolytica to the peptide (class by MBC) (M. haemolytica-A1; MBC assay, classification of ref 28): intermediately sensitive (as intermediately sensitive if MBC levels were 10–100 μg/mL); Chemotaxis of bovine neutrophils towards peptide (migrated neutrophils vs PBS) (bovine neutrophils [2]): chemotactic; Effect of peptide on neutrophil migration towards fMLP (bovine neutrophils [3]): none of the peptides inhibited migration
RGRKVVRRKK-OH [HBD3 10AA analogue]															6.3 µg/mL	LD50 (M. haemolytica-A1; 18 h): ≥ 3.1 µg/mL; No. of CFU (M. haemolytica-A1; peptide 3.1 μg/mL, well row A (duplicate 1), final inoculum 10^4 cfu/mL): 7 CFU; No. of CFU (M. haemolytica-A1; peptide 3.1 μg/mL, well row B (duplicate 2), final inoculum 10^4 cfu/mL): 2 CFU; No. of CFU (M. haemolytica-A1; peptide 6.3 μg/mL, well row A (duplicate 1), final inoculum 10^4 cfu/mL): 4 CFU; No. of CFU (M. haemolytica-A1; peptide 6.3 μg/mL, well row B (duplicate 2), final inoculum 10^4 cfu/mL): 1 CFU; No. of CFU (M. haemolytica-A1; peptide 12.5 μg/mL, well row A (duplicate 1), final inoculum 10^4 cfu/mL): 4 CFU; No. of CFU (M. haemolytica-A1; peptide 12.5 μg/mL, well row B (duplicate 2), final inoculum 10^4 cfu/mL): 6 CFU; No. of CFU (M. haemolytica-A1; peptide 25.0 μg/mL, well row A (duplicate 1), final inoculum 10^4 cfu/mL): 4 CFU; No. of CFU (M. haemolytica-A1; peptide 25.0 μg/mL, well row B (duplicate 2), final inoculum 10^4 cfu/mL): 3 CFU; No. of CFU (M. haemolytica-A1; peptide 50.0 μg/mL, well row A (duplicate 1), final inoculum 10^4 cfu/mL): 4 CFU; No. of CFU (M. haemolytica-A1; peptide 50.0 μg/mL, well row B (duplicate 2), final inoculum 10^4 cfu/mL): 1 CFU; No. of CFU (M. haemolytica-A1; peptide 100.0 μg/mL, well row A (duplicate 1), final inoculum 10^4 cfu/mL): 0 CFU; No. of CFU (M. haemolytica-A1; peptide 100.0 μg/mL, well row B (duplicate 2), final inoculum 10^4 cfu/mL): 0 CFU
